In patent publication US8735414B2 (priority 2009, dated 2014):
pIC50: −log10 of the molar value.

Tests used:
[1] = test system: bicistronic HCV replicon (replicon RNA, GenBank Accession No. AJ242654); experiment: HCV Replicon Assay; format: cell-based; details: Hepatitis C virus, 72 h, read-out: Replicon IC50

| SMILES | pIC50 [1] | melting point [°C] |
| --- | --- | --- |
| Cc1cnc(-n2c(-c3ccc(S(=O)(=O)N[C@@H](C)C(F)(F)F)cn3)c(C(N)=O)c3cc(F)c(C)cc32)cn1 [compound 904, 5-fluoro-6-methyl-1-(5-methylpyrazin-2-yl)-2-(5-{[(2S)-1,1,1-trifluoropropan-2-yl]sulfamoyl}pyridin-2-yl)-1H-indole-3-carboxamide] | > 6.30 | 202 to 208 |
| C[C@H](NS(=O)(=O)c1ccc(-c2c(C#N)c3ccc(OC(F)(F)F)cc3n2C2CCCCC2)nc1)C1CC1 [compound 305, 6-[3-cyano-1-cyclohexyl-6-(trifluoromethoxy)-1H-indol-2-yl]-N-[(1S)-1-cyclopropylethyl]pyridine-3-sulfonamide] | > 6.30 | 195 to 197 |
| CCc1ccc2c(C#N)c(-c3ccc(S(=O)(=O)N[C@H](C)C(F)(F)F)cn3)n(C3CCCC3)c2c1 [compound 311, 6-(3-cyano-1-cyclopentyl-6-ethyl-1H-indol-2-yl)-N-[(2R)-1,1,1-trifluoropropan-2-yl]pyridine-3-sulfonamide] | > 6.30 | 185 to 186 |
| N#Cc1ccc2c(C#N)c(-c3ccc(S(=O)(=O)NC(CF)CF)cn3)n(CC3CC3)c2c1 [compound 347, 6-[3,6-dicyano-1-(cyclopropylmethyl)-1H-indol-2-yl]-N-(1,3-difluoropropan-2-yl)pyridine-3-sulfonamide] | 5.70 to 6.30 | 199 to 201 |
| CCc1cc2c(cc1F)c(S(C)(=O)=O)c(-c1ccc(S(=O)(=O)NC(C)(C)C)cn1)n2-c1ncccn1 [compound 869, N-tert-butyl-6-(6-ethyl-5-fluoro-3-(methylsulfonyl)-1-(pyrimidin-2-yl)-1H-indol-2-yl)pyridine-3-sulfonamide] | 5.70 to 6.30 | 244 to 248 |
| N#Cc1ccc2c(C#N)c(-c3ccc(S(=O)(=O)NC(CF)CF)cn3)n(C3CCCC3)c2c1 [compound 468, 6-(3,6-dicyano-1-cyclopentyl-1H-indol-2-yl)-N-(1,3-difluoropropan-2-yl)pyridine-3-sulfonamide] | > 6.30 | 219 to 221 |
| C[C@H](NS(=O)(=O)c1cnc(-c2c(C#N)c3ccc(CC(F)F)cc3n2CC2CC2)nc1)C1CC1 [compound 619, 2-[3-cyano-1-(cyclopropylmethyl)-6-(2,2-difluoroethyl)-1H-indol-2-yl]-N-[(1S)-1-cyclopropylethyl]pyrimidine-5-sulfonamide] | > 6.30 | 144 to 150 |
| N#Cc1c(-c2ncc(S(=O)(=O)NC(CF)CF)cn2)n(C2CCCCC2)c2ccc(Cl)cc12 [compound 463, 2-(5-chloro-3-cyano-1-cyclohexyl-1H-indol-2-yl)-N-(1,3-difluoropropan-2-yl)pyrimidine-5-sulfonamide] | > 6.30 | 251 to 253 |
| C[C@H](NS(=O)(=O)c1cnc(-c2c(C#N)c3ccc(OC(F)F)cc3n2C2CCC2)nc1)C1CC1 [compound 130, 2-[3-cyano-1-cyclobutyl-6-(difluoromethoxy)-1H-indol-2-yl]-N-[(1S)-1-cyclopropylethyl]pyrimidine-5-sulfonamide] | > 6.30 | 172 to 174 |
| Cc1cc(S(=O)(=O)N[C@@H](C)C(F)(F)F)cnc1-c1c(C#N)c2cc(F)c(OC(F)F)cc2n1C1CCC1 [compound 827, 6-[3-cyano-1-cyclobutyl-6-(difluoromethoxy)-5-fluoro-1H-indol-2-yl]-5-methyl-N-[(2S)-1,1,1-trifluoropropan-2-yl]pyridine-3-sulfonamide] | > 6.30 | 150 to 155 |
| CCc1cc2c(cc1F)c(C(N)=O)c(-c1ccc(S(=O)(=O)N[C@@H](C)C(F)(F)F)cn1)n2-c1ccc(F)cc1 [compound 1019, 6-ethyl-5-fluoro-1-(4-fluorophenyl)-2-(5-{[(2S)-1,1,1-trifluoropropan-2-yl]sulfamoyl}pyridin-2-yl)-1H-indole-3-carboxamide] | > 6.30 | 210 to 217 |
| Cc1ccc2c(c1)c(C#N)c(-c1ccc(S(=O)(=O)N[C@@H](C)C(F)(F)F)cn1)n2-c1ccc(F)cc1 [compound 920, 6-[3-cyano-1-(4-fluorophenyl)-5-methyl-1H-indol-2-yl]-N-[(2S)-1,1,1-trifluoropropan-2-yl]pyridine-3-sulfonamide] | > 6.30 | 195 to 200 |
| CC(C)n1c(-c2ccc(S(=O)(=O)N[C@@H](C)C(F)(F)F)cn2)c(C#N)c2c(F)cc(OC(F)F)cc21 [compound 784, 6-[3-cyano-6-(difluoromethoxy)-4-fluoro-1-(propan-2-yl)-1H-indol-2-yl]-N-[(2S)-1,1,1-trifluoropropan-2-yl]pyridine-3-sulfonamide] | > 6.30 | 193 to 194 |
| Cc1ccc2c(C#N)c(-c3ncc(S(=O)(=O)NC(CF)CF)cn3)n(CC3CC3)c2c1 [compound 133, 2-[3-cyano-1-(cyclopropylmethyl)-6-methyl-1H-indol-2-yl]-N-(1,3-difluoropropan-2-yl)pyrimidine-5-sulfonamide] | > 6.30 | 261 to 262 |
| CC(C)NS(=O)(=O)c1cnc(-c2c(C#N)c3ccc(C4CC4)cc3n2CC2CC2)nc1 [compound 124, 2-[3-cyano-6-cyclopropyl-1-(cyclopropylmethyl)-1H-indol-2-yl]-N-(propan-2-yl)pyrimidine-5-sulfonamide] | > 6.30 | 169 to 174 |
| CC(C)NS(=O)(=O)c1ccc(-c2c(C#N)c3cccc(F)c3n2C2CCCC2)nc1 [compound 66, 6-(3-cyano-1-cyclopentyl-7-fluoro-1H-indol-2-yl)-N-(propan-2-yl)pyridine-3-sulfonamide] | > 6.30 | 152 to 153 |
| COc1ccc2c(C#N)c(-c3ccc(S(=O)(=O)N[C@H](C)C(F)(F)F)cn3)n(C3CCC3)c2c1 [compound 428, 6-(3-cyano-1-cyclobutyl-6-methoxy-1H-indol-2-yl)-N-[(2R)-1,1,1-trifluoropropan-2-yl]pyridine-3-sulfonamide] | > 6.30 | 206 to 212 |
| Cc1c(F)cc2c(C#N)c(-c3ccc(S(=O)(=O)NC4(C(F)(F)F)CC4)cn3)n(C3CCC3)c2c1F [compound 667, 6-(3-cyano-1-cyclobutyl-5,7-difluoro-6-methyl-1H-indol-2-yl)-N-[1-(trifluoromethyl)cyclopropyl]pyridine-3-sulfonamide] | > 6.30 | 235 to 241 |
| CC(C)NS(=O)(=O)c1cnc(-c2c(C(N)=O)c3ccc(OC(F)(F)F)cc3n2C2CCCC2)nc1 [compound 782, 1-cyclopentyl-2-[5-(propan-2-ylsulfamoyl)pyrimidin-2-yl]-6-(trifluoromethoxy)-1H-indole-3-carboxamide] | > 6.30 | 238 to 241 |
| CCCn1c(-c2ccc(S(=O)(=O)NC(CF)CF)cn2)c(C#N)c2ccc(OC(F)F)cc21 [compound 45, 6-[3-cyano-6-(difluoromethoxy)-1-propyl-1H-indol-2-yl]-N-(1,3-difluoropropan-2-yl)pyridine-3-sulfonamide] | > 6.30 | 156 to 158 |
| CCc1cc2c(cc1F)c(C#N)c(-c1ccc(S(=O)(=O)NC3(C)CC3)cn1)n2-c1ncccn1 [compound 860, 6-[3-cyano-6-ethyl-5-fluoro-1-(pyrimidin-2-yl)-1H-indol-2-yl]-N-(1-methylcyclopropyl)pyridine-3-sulfonamide] | > 6.30 | 169 to 179 |
| CCS(=O)(=O)Nc1ccc(-c2c(C#N)c3ccc(OC(C)C)cc3n2C2CCC2)nn1 [compound 276, N-{6-[3-cyano-1-cyclobutyl-6-(propan-2-yloxy)-1H-indol-2-yl]pyridazin-3-yl}ethanesulfonamide] | 5.30 to 5.70 | 181 to 183 |
| N#Cc1c(-c2ncc(S(=O)(=O)NC(CF)CF)cn2)n(-c2ccccc2)c2cc(OC(F)F)ccc12 [compound 610, 2-[3-cyano-6-(difluoromethoxy)-1-phenyl-1H-indol-2-yl]-N-(1,3-difluoropropan-2-yl)pyrimidine-5-sulfonamide] | > 6.30 | 206 to 208 |
| Cc1ccc2c(c1)c(C#N)c(-c1ccc(S(=O)(=O)NC3(C(F)(F)F)CC3)cn1)n2C1CCCC1 [compound 313, 6-(3-cyano-1-cyclopentyl-5-methyl-1H-indol-2-yl)-N-[1-(trifluoromethyl)cyclopropyl]pyridine-3-sulfonamide] | > 6.30 | 209 to 214 |
| Cc1ccc2c(c1)c(C#N)c(-c1ncc(S(=O)(=O)NC(CF)CF)cn1)n2CC1CC1 [compound 524, 2-[3-cyano-1-(cyclopropylmethyl)-5-methyl-1H-indol-2-yl]-N-(1,3-difluoropropan-2-yl)pyrimidine-5-sulfonamide] | > 6.30 | 151 to 155 |
| N#Cc1c(-c2ccc(S(=O)(=O)NC(CF)CF)cn2)n(C2CCC2)c2cc(CC(F)F)ccc12 [compound 267, 6-[3-cyano-1-cyclobutyl-6-(2,2-difluoroethyl)-1H-indol-2-yl]-N-(1,3-difluoropropan-2-yl)pyridine-3-sulfonamide] | > 6.30 | 166 to 168 |
| CCc1cc2c(cc1F)c(C#N)c(-c1ccc(S(=O)(=O)N[C@@H](C)C(F)(F)F)cn1)n2-c1ccc(F)c(Cl)c1 [compound 1062, 6-[1-(3-chloro-4-fluorophenyl)-3-cyano-6-ethyl-5-fluoro-1H-indol-2-yl]-N-[(2S)-1,1,1-trifluoropropan-2-yl]pyridine-3-sulfonamide] | > 6.30 | 228 to 232 |
| C[C@H](NS(=O)(=O)c1cnc(-c2c(C#N)c3ccc(OC(F)F)cc3n2CC2CC2)nc1)C(F)(F)F [compound 398, 2-[3-cyano-1-(cyclopropylmethyl)-6-(difluoromethoxy)-1H-indol-2-yl]-N-[(2S)-1,1,1-trifluoropropan-2-yl]pyrimidine-5-sulfonamide] | > 6.30 | 211 to 212 |
